Assay results: patent US11345711B2, “8,9-dihydroimidazo[1,2-a]pyrimido[5,4-e]pyrimidin-5(6H)-ones” (IMPACT THERAPEUTICS (SHANGHAI), INC, priority 2016, dated 2022)
Read-outs that look alike come from different tables or passages of the source.

Assays:
Wee1 (h) = Wee1 (h) (Homo sapiens, UniProt P30291); assay: Wee1 kinase (h) detection method, [γ-33P]-ATP filter assay; assay type: biochemical
LoVo cells = assay: MTT based cell viability assay on LoVo cells; conditions: Homo sapiens, LoVo, 72 h, 3 d, read-out: IC50, growth inhibition of LoVo cells
Procedure, shortened: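 Inhibition of LoVo proliferation was derived as IC50 from a sigmoidal dose-response fit of cell survival. Readout was MTT (0.5 mg/mL, 4 h) with absorbance at 552/630/690 nm, after 3-day treatment at 37 °C. Eight-point series from 10 μM to 0.01 μM, DMSO control, 1% DMSO final.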

NCI-H1299 cells = assay: MTT based cell viability assay on NCI-H1299 cells; conditions: Homo sapiens, read-out: IC50, growth inhibition of NCI-H1299 cells
Procedure, shortened: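 NCI-H1299 cells (1000/well, settled overnight) were exposed for 3 d at 37 °C, 5% CO2, to an eight-point series of 10 μM to 0.01 μM plus DMSO blank, as prepared in DMSO (final DMSO 1‰). MTT (0.5 mg/mL, 4 h) was read at 552/630/690 nm. IC50 came from sigmoidal dose-response fits of survival.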

Wee1 (h), sequence (P30291 whole entry): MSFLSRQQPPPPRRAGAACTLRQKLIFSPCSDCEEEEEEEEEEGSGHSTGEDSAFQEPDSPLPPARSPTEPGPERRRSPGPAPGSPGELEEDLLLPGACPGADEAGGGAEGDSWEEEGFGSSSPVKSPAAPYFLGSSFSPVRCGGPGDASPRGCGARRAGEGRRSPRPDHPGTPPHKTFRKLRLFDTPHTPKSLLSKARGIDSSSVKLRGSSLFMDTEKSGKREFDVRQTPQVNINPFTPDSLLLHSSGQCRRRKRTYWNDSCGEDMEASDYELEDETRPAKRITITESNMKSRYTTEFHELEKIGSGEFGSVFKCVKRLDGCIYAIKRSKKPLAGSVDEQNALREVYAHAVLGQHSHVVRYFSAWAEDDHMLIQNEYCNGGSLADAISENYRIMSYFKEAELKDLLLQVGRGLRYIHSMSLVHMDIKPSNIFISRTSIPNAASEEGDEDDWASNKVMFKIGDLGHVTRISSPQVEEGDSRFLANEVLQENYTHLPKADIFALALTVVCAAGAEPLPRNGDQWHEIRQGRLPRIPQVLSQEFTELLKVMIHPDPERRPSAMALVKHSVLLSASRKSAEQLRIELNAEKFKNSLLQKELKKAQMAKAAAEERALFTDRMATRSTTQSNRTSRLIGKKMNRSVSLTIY

SMILES | Inh. (%) of Wee1 kinase enzyme activity (Wee1 (h); C 1 μm compound) | IC50 (LoVo cells) | IC50 (NCI-H1299 cells; NCI-H1299, NCI-H1299 cells) | Inh. (%) of Wee1 kinase enzyme activity (Wee1 (h); C 0.01 μm compound) | Inh. (%) of Wee1 kinase enzyme activity (Wee1 (h); C 0.1 μm compound) | IC50 (NCI-H1299 cells; NCI-H1299 cells)
CN1CCC(N(C)c2ccc(Nc3ncc4c(n3)N3CCN=C3N(c3c(F)cccc3Cl)C4=O)cc2)CC1 [Example 113, 6-(2-Chloro-6-fluorophenyl)-2-((4-(methyl(1-methylpiperidin-4-yl)amino)phenyl)amino)-8,9-dihydroimidazo[1,2-a]pyrimido[5,4-e]pyrimidin-5(6H)-one] | 96% | 483 nM | 672 nM |  |  | 
CN1CCC(c2ccc(Nc3ncc4c(n3)N3CCN=C3N(c3c(F)cccc3Cl)C4=O)cc2)CC1 [Example 114, 6-(2-Chloro-6-fluorophenyl)-2-((4-(1-methylpiperidin-4-yl)phenyl)amino)-8,9-dihydroimidazo[1,2-a]pyrimido[5,4-e]pyrimidin-5(6H)-one] | 98% | 105 nM | 233 nM |  |  | 
CN(C)C1CCN(c2ccc(Nc3ncc4c(n3)N3CCN=C3N(c3c(F)cccc3Cl)C4=O)cc2)CC1 [Example 115, 6-(2-Chloro-6-fluorophenyl)-2-((4-(4-(dimethylamino)piperidin-1-yl)phenyl)amino)-8,9-dihydroimidazo[1,2-a]pyrimido[5,4-e]pyrimidin-5(6H)-one] | 96% | 265 nM | 381 nM | 34% | 81% | 
CN(C)C1CCN(c2ccc(Nc3ncc4c(n3)N3CCN=C3N(c3c(F)cccc3Cl)C4=O)cc2F)CC1 [Example 116, 6-(2-Chloro-6-fluorophenyl)-2-((4-(4-(dimethylamino)piperidin-1-yl)-3-fluorophenyl)amino)-8,9-dihydroimidazo[1,2-a]pyrimido[5,4-e]pyrimidin-5(6H)-one] | 98% | 123 nM | 265 nM | 19% | 77% | 
CN(C)C1CCN(c2ccc(Nc3ncc4c(n3)N3CCN=C3N(c3c(F)cccc3Cl)C4=O)cc2Cl)CC1 [Example 117, 6-(2-Chloro-6-fluorophenyl)-2-((3-chloro-4-(4-(dimethylamino)piperidin-1-yl)phenyl)amino)-8,9-dihydroimidazo[1,2-a]pyrimido[5,4-e]pyrimidin-5(6H)-one] | 98% | 66.2 nM | 103 nM | 22% | 84% | 
CN(C)C1CCN(c2ccc(Nc3ncc4c(n3)N3CCN=C3N(c3c(F)cccc3Cl)C4=O)cc2Br)CC1 [Example 118, 6-(2-Chloro-6-fluorophenyl)-2-((3-bromo-4-(4-(dimethylamino)piperidin-1-yl)phenyl)amino)-8,9-dihydroimidazo[1,2-a]pyrimido[5,4-e]pyrimidin-5(6H)-one] | 96% | 81.1 nM | 96.4 nM | 25% | 82% | 
Cc1cc(Nc2ncc3c(n2)N2CCN=C2N(c2c(F)cccc2Cl)C3=O)ccc1N1CCC(N(C)C)CC1 [Example 119, 6-(2-Chloro-6-fluorophenyl)-2-((4-(4-(dimethylamino)piperidin-1-yl)-3-methylphenyl)amino)-8,9-dihydroimidazo[1,2-a]pyrimido[5,4-e]pyrimidin-5(6H)-one] | 99% | 54.3 nM | 92.3 nM | 24% | 86% | 
Cc1cc(Nc2ncc3c(n2)N2CCN=C2N(c2c(F)cccc2Cl)C3=O)cc(F)c1N1CCC(N(C)C)CC1 [Example 120, 6-(2-Chloro-6-fluorophenyl)-2-((3-fluoro-5-methyl-4-(4-(dimethylamino)piperidin-1-yl)phenyl)amino)-8,9-dihydroimidazo[1,2-a]pyrimido[5,4-e]pyrimidin-5(6H)-one] | 98% | 35.9 nM | 59.3 nM | 16% | 80% | 

Now from value to molecule:

Inh. (%) of Wee1 kinase enzyme activity (Wee1 (h); C 1 μm compound) | IC50 (LoVo cells) | IC50 (NCI-H1299 cells; NCI-H1299, NCI-H1299 cells) | Inh. (%) of Wee1 kinase enzyme activity (Wee1 (h); C 0.01 μm compound) | Inh. (%) of Wee1 kinase enzyme activity (Wee1 (h); C 0.1 μm compound) | IC50 (NCI-H1299 cells; NCI-H1299 cells) | SMILES
15% | > 100000 nM |  |  |  | > 10000 nM | CN1CCN(c2cnc(Nc3ncc4c(n3)N3CCN=C3N(c3c(F)cccc3Cl)C4=O)cn2)CC1 [Example 121, 6-(2-Chloro-6-fluorophenyl)-2-((5-(4-methylpiperazin-1-yl)pyrazin-2-yl)amino)-8,9-dihydroimidazo[1,2-a]pyrimido[5,4-e]pyrimidin-5(6H)-one]
91% | 51.8 nM | 334 nM | 20% | 58% |  | CN1CCN(c2c(Cl)cc(Nc3ncc4c(n3)N3CCN=C3N(c3c(F)cccc3Cl)C4=O)cc2Cl)CC1 [Example 122, 6-(2-Chloro-6-fluorophenyl)-2-((3,5-dichloro-4-(4-methylpiperazin-1-yl)phenyl)amino)-8,9-dihydroimidazo[1,2-a]pyrimido[5,4-e]pyrimidin-5(6H)-one]
97% | 39.1 nM | 218 nM | 43% | 87% |  | Cc1cc(Nc2ncc3c(n2)N2CCN=C2N(c2c(F)cccc2Cl)C3=O)cc(F)c1N1CCN(C)CC1 [Example 123, 6-(2-Chloro-6-fluorophenyl)-2-((3-fluoro-5-methyl-4-(4-methylpiperazin-1-yl)phenyl)amino)-8,9-dihydroimidazo[1,2-a]pyrimido[5,4-e]pyrimidin-5(6H)-one]
92% | 49.7 nM | 138 nM | 18% | 62% |  | COc1cc(Nc2ncc3c(n2)N2CCN=C2N(c2c(F)cccc2Cl)C3=O)cc(F)c1N1CCN(C)CC1 [Example 124, 6-(2-Chloro-6-fluorophenyl)-2-((3-fluoro-5-methoxy-4-(4-methylpiperazin-1-yl)phenyl)amino)-8,9-dihydroimidazo[1,2-a]pyrimido[5,4-e]pyrimidin-5(6H)-one]
95% | 26.4 nM | 92.9 nM | 18% | 74% |  | Cc1cc(Nc2ncc3c(n2)N2CCN=C2N(c2c(F)cccc2Cl)C3=O)cc(Cl)c1N1CCN(C)CC1 [Example 125, 6-(2-Chloro-6-fluorophenyl)-2-((3-chloro-5-methyl-4-(4-methylpiperazin-1-yl)phenyl)amino)-8,9-dihydroimidazo[1,2-a]pyrimido[5,4-e]pyrimidin-5(6H)-one]
89% | 56.7 nM | 67 nM |  |  |  | COc1cc(Nc2ncc3c(n2)N2CCN=C2N(c2c(F)cccc2Cl)C3=O)cc(Cl)c1N1CCN(C)CC1 [Example 126, 6-(2-Chloro-6-fluorophenyl)-2-((3-chloro-5-methoxy-4-(4-methylpiperazin-1-yl)phenyl)amino)-8,9-dihydroimidazo[1,2-a]pyrimido[5,4-e]pyrimidin-5(6H)-one]
88% | 42.3 nM |  |  |  | 96.5 nM | COc1cc(Nc2ncc3c(n2)N2CCN=C2N(c2c(F)cccc2Cl)C3=O)cc(Br)c1N1CCN(C)CC1 [Example 127, 6-(2-Chloro-6-fluorophenyl)-2-((3-bromo-5-methoxy-4-(4-methylpiperazin-1-yl)phenyl)amino)-8,9-dihydroimidazo[1,2-a]pyrimido[5,4-e]pyrimidin-5(6H)-one]
89% | 68.8 nM | 306 nM | 8% | 61% |  | Cc1cc(Nc2ncc3c(n2)N2CCN=C2N(c2c(F)cccc2Cl)C3=O)cc(C(F)(F)F)c1N1CCN(C)CC1 [Example 128, 6-(2-Chloro-6-fluorophenyl)-2-((3-methyl-4-(4-methylpiperazin-1-yl)-5-(trifluoromethyl)phenyl)amino)-8,9-dihydroimidazo[1,2-a]pyrimido[5,4-e]pyrimidin-5(6H)-one]
93% | 70.3 nM | 78.2 nM | 26% | 73% |  | COc1cc(Nc2ncc3c(n2)N2CCN=C2N(c2c(F)cccc2Cl)C3=O)cc(C)c1N1CCN(C)CC1 [Example 129, 6-(2-Chloro-6-fluorophenyl)-2-((3-methoxy-5-methyl-4-(4-methylpiperazin-1-yl)phenyl)amino)-8,9-dihydroimidazo[1,2-a]pyrimido[5,4-e]pyrimidin-5(6H)-one]
93% | 624 nM |  |  |  | 243 nM | CN1CCc2c(Cl)cc(Nc3ncc4c(n3)N3CCN=C3N(c3c(Cl)cccc3Cl)C4=O)cc2C1 [Example 130, 6-(2,6-Dichlorophenyl)-2-((5-chloro-2-methyl-1,2,3,4-tetrahydroisoquinolin-7-yl)amino)-8,9-dihydroimidazo[1,2-a]pyrimido[5,4-e]pyrimidin-5(6H)-one]
100% | 187 nM | 58.8 nM | 27% | 89% |  | Cc1cc(Nc2ncc3c(n2)N2CCN=C2N(c2c(Cl)cccc2Cl)C3=O)cc2c1CCN(C)C2 [Example 131, 6-(2,6-Dichlorophenyl)-2-((2,5-dimethyl-1,2,3,4-tetrahydroisoquinolin-7-yl)amino)-8,9-dihydroimidazo[1,2-a]pyrimido[5,4-e]pyrimidin-5(6H)-one]
